Measurements reported in BindingDB's records for doi:10.1016/j.bmc.2018.04.029 (Shenyang Pharmaceutical University, 2018).

Assay: Inhibition of Hepatitis C virus genotype 1b NS5B RNA-dependent-RNA polymerase assessed as reduction in viral replication after 72 hrs by indirect immunofluorescence assay

Structure (SMILES)	EC50 [nM]
CS(=O)(=O)Nc1ccc(-n2cc(Cn3ccc4nc(-c5ccccc5F)nc-4c3)nn2)cc1	18
O=c1ncccn1Cc1ccc(-n2cc(Cn3ccc4nc(-c5ccccc5F)nc-4c3)nn2)cc1	96
Fc1ccccc1-c1nc2ccn(Cc3cn(-c4ccccc4)nn3)cc-2n1	23
Fc1ccc(-n2cc(Cn3ccc4nc(-c5ccccc5F)nc-4c3)nn2)cc1	35
Fc1ccccc1-c1nc2ccn(Cc3cn(-c4ccccc4F)nn3)cc-2n1	52
O=c1ccccn1Cc1ccc(-n2cc(Cn3ccc4nc(-c5ccccc5F)nc-4c3)nn2)cc1	93

Second part, the molecule after the results:

EC50 [nM]	Structure (SMILES)
84	Cc1cc(C)n2nc(Cn3cc(Cn4ccc5nc(-c6ccccc6F)nc-5c4)nn3)nc2n1
1.2	COc1ccc(-n2cc(Cn3ccc4nc(-c5ccccc5F)nc-4c3)nn2)cc1
21	Fc1ccccc1-c1nc2ccn(Cc3cn(Cc4cn5cccnc5n4)nn3)cc-2n1
13	COc1cccc(-n2cc(Cn3ccc4nc(-c5ccccc5F)nc-4c3)nn2)c1
37	Cc1cc(C)n2cc(Cn3cc(Cn4ccc5nc(-c6ccccc6F)nc-5c4)nn3)nc2n1
